Source: patent publication US20050153943A1, “Methods of simultaneously treating mucositis and fungal infection” (priority 2002, published 2005)

What was measured:
Test in all cases: Fungal growth on SABHI agar containing CMT (Example 38)
Format in all cases: cell-based
[1] = test system: Aspergillus fumigatus ATCC 1022; conditions: for Growth at 25 μg/ml compared to control at 24 hrs incubation / Growth at 25 μg/ml compared to control at 48 hours: 30° C., growth grade; for Anti-fungal activity (summary in words): 25 μg/ml agar, Example 38
Procedure: (§1) The following fungi were inoculated onto potato dextrose agar (PDA) from stock cultures and incubated aerobically at 30° C.: Aspergillus [NT] 1022, Penicillium sp. (laboratory isolate), Candida albicans, ATCC 14053, and Rhizopus sp. […] The conidia were suspended in 0.9% saline and the turbidity was adjusted to match a 0.5 MacFarland standard (equivalent to approximately 1.5×10^8 cells). Candida albicans was suspended in saline and adjusted to 0.5 MacFarland in a similar manner. These suspensions were diluted 1:100 in sterile 0.9% saline. SABHI Agar (Difco) pH 7.0 was prepared in 100 ml amounts and sterilized at 121° C. for 15 min. […] SABHI Agar plates of each CMT and SAHBI agar without CMT using dimethylsulphoxide (DMSO) as a control were inoculated with 10 μl of conidia suspension of Aspergillus fumigatus, Penicillium sp. and Rhizopus sp. and 10 μl suspension of Candida albicans prepared as described above. The plates were then incubated aerobically for 24 hour and for 48 hours at 30° C. The results are set forth in Table 1 (24 hr. incubation) and Table 2 (48 hr. incubation). [table]

[2] = test system: Candida albicans, ATCC 14053; conditions: for Growth at 25 μg/ml compared to control at 24 hrs incubation / Growth at 25 μg/ml compared to control at 48 hours: 30° C., growth grade; for Anti-fungal activity (summary in words): 25 μg/ml agar, Example 38
Procedure: as §1

[3] = test system: Penicillium sp. (laboratory isolate); conditions: for Growth at 25 μg/ml compared to control at 24 hrs incubation / Growth at 25 μg/ml compared to control at 48 hours: 30° C., growth grade; for Anti-fungal activity (summary in words): 25 μg/ml agar, Example 38
Procedure: as §1

Rhizopus sp. = conditions: for Growth at 25 μg/ml compared to control at 24 hrs incubation / Growth at 25 μg/ml compared to control at 48 hours: 30° C., growth grade
Procedure: as §1

Compound: 4-Dedimethylamino-7-dimethylamino-6-demethyl-6-deoxy-9-ethoxythiocarbonylthio-tetracycline sulfate [Example 7]
- Growth at 25 μg/ml compared to control at 24 hrs incubation [1]: 0 (complete inhibition of growth.)
- Growth at 25 μg/ml compared to control at 48 hours [1]: 4 (Level of growth in the absence of anti-fungal agent (control).)
- Growth at 25 μg/ml compared to control at 24 hrs incubation [2]: 0 (complete inhibition of growth.)
- Growth at 25 μg/ml compared to control at 48 hours [2]: 0 (complete inhibition of growth.)
- Growth at 25 μg/ml compared to control at 24 hrs incubation [3]: 3 (25% reduction in growth of colonies compared to control.)
- Growth at 25 μg/ml compared to control at 48 hours [3]: 4 (Level of growth in the absence of anti-fungal agent (control).)
- Growth at 25 μg/ml compared to control at 24 hrs incubation (Rhizopus sp.): 4 (Level of growth in the absence of anti-fungal agent (control).)
- Growth at 25 μg/ml compared to control at 48 hours (Rhizopus sp.): 3 (25% reduction in growth of colonies compared to control.)

Compound: CC1(O)c2c(Cl)ccc(O)c2C(=O)C2=C(O)C3(O)C(=O)C(C(N)=O)=C(O)CC3CC21 (centres unmarked) [COL 4, 7-chloro-4-dedimethylaminotetracycline]
- Anti-fungal activity (summary in words) [1]: demonstrated activity
- Anti-fungal activity (summary in words) [3]: demonstrated activity

Compound: CC1(O)c2cccc(O)c2C(=O)C2=C(O)C3C(=O)C(C(N)=O)=C(O)CC3CC21 (stereo not drawn) [COL 7, 4-dedimethylamino-12α-deoxytetracycline]
- Anti-fungal activity (summary in words) [2]: strong activity

Compound: NC(=O)C1=C(O)CC2CC3Cc4c([N+](=O)[O-])ccc(O)c4C(=O)C3=C(O)C2(O)C1=O (centres unmarked) [COL 302, 7-nitro-6-demethyl-6-deoxy-4-dedimethylaminotetracycline]
- Growth at 25 μg/ml compared to control at 24 hrs incubation [1]: 0 (complete inhibition of growth.)
- Growth at 25 μg/ml compared to control at 48 hours [1]: 4 (Level of growth in the absence of anti-fungal agent (control).)
- Growth at 25 μg/ml compared to control at 24 hrs incubation [2]: 4 (Level of growth in the absence of anti-fungal agent (control).)
- Growth at 25 μg/ml compared to control at 48 hours [2]: 4 (Level of growth in the absence of anti-fungal agent (control).)
- Growth at 25 μg/ml compared to control at 24 hrs incubation [3]: 3 (25% reduction in growth of colonies compared to control.)
- Growth at 25 μg/ml compared to control at 48 hours [3]: 4 (Level of growth in the absence of anti-fungal agent (control).)
- Growth at 25 μg/ml compared to control at 24 hrs incubation (Rhizopus sp.): 4 (Level of growth in the absence of anti-fungal agent (control).)
- Growth at 25 μg/ml compared to control at 48 hours (Rhizopus sp.): 4 (Level of growth in the absence of anti-fungal agent (control).)

Compound: NC(=O)C1=C(O)CC2CC3Cc4ccc([N+](=O)[O-])c(O)c4C(=O)C3=C(O)C2(O)C1=O (centres unmarked) [COL 303, 9-nitro-6-demethyl-6-deoxy-4-dedimethylaminotetracycline]
- Growth at 25 μg/ml compared to control at 48 hours [1]: 4 (Level of growth in the absence of anti-fungal agent (control).)
- Growth at 25 μg/ml compared to control at 24 hrs incubation [2]: 3 (25% reduction in growth of colonies compared to control.)
- Growth at 25 μg/ml compared to control at 48 hours [2]: 4 (Level of growth in the absence of anti-fungal agent (control).)
- Growth at 25 μg/ml compared to control at 24 hrs incubation [3]: 3 (25% reduction in growth of colonies compared to control.)
- Growth at 25 μg/ml compared to control at 48 hours [3]: 4 (Level of growth in the absence of anti-fungal agent (control).)
- Growth at 25 μg/ml compared to control at 24 hrs incubation (Rhizopus sp.): 4 (Level of growth in the absence of anti-fungal agent (control).)
- Growth at 25 μg/ml compared to control at 48 hours (Rhizopus sp.): 4 (Level of growth in the absence of anti-fungal agent (control).)

Compound: CN(C)c1ccc2c(c1O)C(=O)C1=C(O)C3(O)C(=O)C(C(N)=O)=C(O)CC3CC1C2 (centres unmarked) [COL 306, 9-dimethylamino-6-demethyl-6-deoxy-4-dedimethylaminotetracycline]
- Growth at 25 μg/ml compared to control at 24 hrs incubation [1]: 1 (75% reduction in growth in colonies compared to control.)
- Growth at 25 μg/ml compared to control at 48 hours [1]: 4 (Level of growth in the absence of anti-fungal agent (control).)
- Growth at 25 μg/ml compared to control at 24 hrs incubation [2]: 3 (25% reduction in growth of colonies compared to control.)
- Growth at 25 μg/ml compared to control at 48 hours [2]: 4 (Level of growth in the absence of anti-fungal agent (control).)
- Growth at 25 μg/ml compared to control at 24 hrs incubation [3]: 3 (25% reduction in growth of colonies compared to control.)
- Growth at 25 μg/ml compared to control at 48 hours [3]: 4 (Level of growth in the absence of anti-fungal agent (control).)
- Growth at 25 μg/ml compared to control at 24 hrs incubation (Rhizopus sp.): 4 (Level of growth in the absence of anti-fungal agent (control).)
- Growth at 25 μg/ml compared to control at 48 hours (Rhizopus sp.): 4 (Level of growth in the absence of anti-fungal agent (control).)

Compound: NC(=O)C1=C(O)CC2CC3Cc4ccc(N)c(O)c4C(=O)C3=C(O)C2(O)C1=O (centres unmarked) [COL 308, 9-amino-6-demethyl-6-deoxy-4-dedimethylaminotetracycline]
- Anti-fungal activity (summary in words) [1]: demonstrated activity
- Growth at 25 μg/ml compared to control at 24 hrs incubation [1]: 0 (complete inhibition of growth.)
- Growth at 25 μg/ml compared to control at 48 hours [1]: 1 (75% reduction in growth in colonies compared to control.)
- Growth at 25 μg/ml compared to control at 24 hrs incubation [2]: 4 (Level of growth in the absence of anti-fungal agent (control).)
- Growth at 25 μg/ml compared to control at 48 hours [2]: 4 (Level of growth in the absence of anti-fungal agent (control).)
- Anti-fungal activity (summary in words) [3]: demonstrated activity
- Growth at 25 μg/ml compared to control at 24 hrs incubation [3]: 0 (complete inhibition of growth.)
- Growth at 25 μg/ml compared to control at 48 hours [3]: 0 (complete inhibition of growth.)
- Growth at 25 μg/ml compared to control at 24 hrs incubation (Rhizopus sp.): 4 (Level of growth in the absence of anti-fungal agent (control).)
- Growth at 25 μg/ml compared to control at 48 hours (Rhizopus sp.): 4 (Level of growth in the absence of anti-fungal agent (control).)

Compound: CN(C)CC(=O)Nc1ccc2c(c1O)C(=O)C1=C(O)C3(O)C(=O)C(C(N)=O)=C(O)CC3CC1C2 (centres unmarked) [COL 309, 9-dimethylaminoacetamido-6-demethyl-6-deoxy-4-dedimethylaminotetracycline]
- Growth at 25 μg/ml compared to control at 48 hours [1]: 4 (Level of growth in the absence of anti-fungal agent (control).)
- Growth at 25 μg/ml compared to control at 24 hrs incubation [2]: 4 (Level of growth in the absence of anti-fungal agent (control).)
- Growth at 25 μg/ml compared to control at 48 hours [2]: 4 (Level of growth in the absence of anti-fungal agent (control).)
- Growth at 25 μg/ml compared to control at 24 hrs incubation [3]: 3 (25% reduction in growth of colonies compared to control.)
- Growth at 25 μg/ml compared to control at 48 hours [3]: 4 (Level of growth in the absence of anti-fungal agent (control).)
- Growth at 25 μg/ml compared to control at 24 hrs incubation (Rhizopus sp.): 4 (Level of growth in the absence of anti-fungal agent (control).)
- Growth at 25 μg/ml compared to control at 48 hours (Rhizopus sp.): 4 (Level of growth in the absence of anti-fungal agent (control).)

Compound: O=C(NCN1CCNCC1)C1=C(O)CC2CC3Cc4cccc(O)c4C(=O)C3=C(O)C2(O)C1=O (centres unmarked) [COL 315, 2-CONHCH2-piperazin-1-yl-6-demethyl-6-deoxy-4-dedimethylaminotetracycline]
- Anti-fungal activity (summary in words) [1]: activity against all the fungi tested
- Growth at 25 μg/ml compared to control at 24 hrs incubation [1]: 0 (complete inhibition of growth.)
- Growth at 25 μg/ml compared to control at 48 hours [1]: 0 (complete inhibition of growth.)
- Anti-fungal activity (summary in words) [2]: activity against all the fungi tested
- Growth at 25 μg/ml compared to control at 24 hrs incubation [2]: 0 (complete inhibition of growth.)
- Growth at 25 μg/ml compared to control at 48 hours [2]: 0 (complete inhibition of growth.)
- Anti-fungal activity (summary in words) [3]: activity against all the fungi tested
- Growth at 25 μg/ml compared to control at 24 hrs incubation [3]: 0 (complete inhibition of growth.)
- Growth at 25 μg/ml compared to control at 48 hours [3]: 0 (complete inhibition of growth.)
- Anti-fungal activity (summary in words) (Rhizopus sp.; 25 μg/ml agar, Example 38): activity against all the fungi tested
- Growth at 25 μg/ml compared to control at 24 hrs incubation (Rhizopus sp.): 1 (75% reduction in growth in colonies compared to control.)
- Growth at 25 μg/ml compared to control at 48 hours (Rhizopus sp.): 1 (75% reduction in growth in colonies compared to control.)

Compound: CC(=O)Nc1cc(N(C)C)c2c(c1O)C(=O)C1=C(O)C3(O)C(=O)C(C(N)=O)=C(O)CC3CC1C2.O=S(=O)(O)O (centres unmarked) [Example 3, 9-Acetamido-4-dedimethylamino-7-dimethylamino-6-demethyl-6-deoxytetracycline sulfate]
- Growth at 25 μg/ml compared to control at 24 hrs incubation [1]: 0 (complete inhibition of growth.)
- Growth at 25 μg/ml compared to control at 48 hours [1]: 4 (Level of growth in the absence of anti-fungal agent (control).)
- Growth at 25 μg/ml compared to control at 24 hrs incubation [2]: 1 (75% reduction in growth in colonies compared to control.)
- Growth at 25 μg/ml compared to control at 48 hours [2]: 4 (Level of growth in the absence of anti-fungal agent (control).)
- Growth at 25 μg/ml compared to control at 24 hrs incubation [3]: 0 (complete inhibition of growth.)
- Growth at 25 μg/ml compared to control at 48 hours [3]: 4 (Level of growth in the absence of anti-fungal agent (control).)
- Growth at 25 μg/ml compared to control at 24 hrs incubation (Rhizopus sp.): 3 (25% reduction in growth of colonies compared to control.)
- Growth at 25 μg/ml compared to control at 48 hours (Rhizopus sp.): 1 (75% reduction in growth in colonies compared to control.)
